Source: PMC5538626, “Structural and functional analysis of the GABARAP interaction motif (GIM)” (EMBO Reports, 2017)
Ends that are not written are not given here.

Assays:
LC3 and GABARAP families = conditions: cited from earlier work
Description: However, despite the ever‐increasing number of LC3/GABARAP interaction partners identified and perhaps the over‐reliance on LC3B as the main marker of autophagosomes, there is now emerging distinct roles of each LC3 and GABARAP subfamily. For example, both LC3 and GABARAP families are essential for autophagy flux 29; however, LC3s were reported to be involved in phagophore extension and GABARAPs required for autophagosome closure 29. Moreover, GABARAP can activate ULK1 complex to initiate autophagy, irrespective of its conjugation status 28. Indeed, this is also reflected in C. elegans homolog ...

6xHis-tagged LC3A = experiment: Peptide array (ELISA), LC3A; conditions: fold change over WT, mean ± SEM n = 3, Fig EV5A
[1] = system: GABARAP family (GABARAP, GABARAP-L1, GABARAP-L2); experiment: Peptide array (ELISA), GABARAP family; conditions: fold change over WT, n = 3, Fig EV5A
6xHis-tagged LC3B = experiment: Peptide array (ELISA), LC3B; conditions: fold change over WT, n = 3, Fig EV5A
6xHis-tagged LC3C = experiment: Peptide array (ELISA), LC3C; conditions: fold change over WT, n = 3, Fig EV5A
all six mATG8 proteins = experiment: Peptide array (ELISA), all six mATG8s; conditions: 450 nm, Fig 3E, n = 4

Substance | interaction with LC3A, Θ and Γ mutants (6xHis-tagged LC3A) | interaction with GABARAP family, Θ and Γ mutants [1] | interaction with LC3B, Θ and Γ mutants (6xHis-tagged LC3B) | interaction with LC3C, Θ and Γ mutants (6xHis-tagged LC3C) | further results
EDSFVEIRM [OPTN, LIR peptide 175–183] |  |  |  |  | subfamily preference after phosphorylation (LC3 and GABARAP families; TBK1 phosphorylation at S177): switches to LC3B; subfamily preference (LC3 and GABARAP families; unmodified state): clearly shows preference for GABARAP
SEDYIIILP [NBR1, LIR peptide 729–737] |  |  |  |  | subfamily specificity (LC3 and GABARAP families): GABARAP‐L1‐specific receptor
V638I: PLEKHM1-LIR array peptide V638I (EDEWVNIQY; also: biotin, position not given here) | did not affect | small decrease in the interaction | increase the affinity | did not affect | 
EDEAVNAQY [W635A/V638A, reference compound] |  |  |  |  | interaction with all mATG8s, alanine scan (all six mATG8 proteins): completely disrupted all LIR–mATG8 interactions
V638L: PLEKHM1-LIR array peptide V638L (EDEWVNLQY; also: biotin, position not given here) | did not affect | small decrease in the interaction | increase the affinity | did not affect | 
